Results published in paper PMC12646587, “Advanced cardiotoxicity profiling using field potential imaging with UHD-CMOS-MEA in human iPSC-derived cardiomyocytes” (Toxicological Sciences, 2025).
Like-named read-outs stand apart in the source and are kept apart here. Blank lines part the entries; values can stand above or below the molecule they belong to.

Key:
[1] = tested on: human iPSC-derived cardiomyocytes; assay: PCA of beat parameters: cardiotoxicity risk and mechanism classification; assay type: cell-based; settings: for position in PCA space: across all tested concentrations
Method: Each parameter set was evaluated for its ability to separate cardiotoxic and non-cardiotoxic compounds while maintaining minimal variance among negative controls. […] To assess cardiotoxicity, PCA scores of test compounds were plotted in the PC space, and their positions were compared with the SD-defined zones of the negative control group. Risk levels were classified as follows: Low risk (within 1 SD), medium risk (between 1 and 2 SD), and high risk (beyond 2 SD). Dose-dependent cardiotoxicity potential was estimated based on displacement from the negative control cluster.
To establish a risk classification framework, the standard deviation (SD) range of negative control compounds in PCA space was used to define 3 zones: Within the SD range (low risk), between 1 and 2 SD (medium risk), and beyond 2 SD (high risk) (Fig. 6B). Risk levels derived from PCA distribution were compared with IC50 and Cmax values reported for each compound and associated ion channels (Table 5).

[2] = tested on: human iPSC-derived cardiomyocytes; assay: Field potential imaging (FPI) with UHD-CMOS-MEA, acute drug treatment; assay type: cell-based; settings: for significant changes in any of the measured parameters (17 beat parameters): 10, 100 μM; for BR (beat rate): arrows = direction, – = none; for FPI (concentration at which changes were detected): changed parameters in brackets in each cell
Method: Cryopreserved iCell Cardiomyocytes (FUJIFILM Cellular Dynamics, Inc.) were handled according to the supplier’s instructions. Cells were thawed in a 37 °C water bath for approximately 3 min and resuspended in iCell Thawing Medium to prepare a cell suspension at a final concentration of 1 × 10^7 cells/ml. A total of 10 µl of the cell suspension (100,000 cells per chip) was seeded directly onto the fibronectin-coated electrode area of each chip. Chips were incubated at 37 °C for 1 h to allow cell attachment, after which 1 ml of maintenance medium was gently added. […] Thereafter, medium exchanges were performed twice weekly by replacing half the medium volume.
Compounds were dissolved in culture medium containing 0.1% DMSO and administered cumulatively at increasing concentrations. Drug solutions were applied directly to the culture wells, and measurements were initiated 30 min after administration. […] All recordings were performed under spontaneous beating conditions, with no external pacing applied.
Recordings were performed at a sampling rate of 2 kHz, with a 2-min recording duration per condition. Data acquisition was controlled via proprietary software (Sony Semiconductor Solutions), and all raw signals were stored for offline analysis. All experiments were conducted in a humidified environment at 37 °C with 5% CO2, ensuring physiological conditions during both drug exposure and recording.
Spikes from hiPSC-derived cardiomyocytes were initially detected at each electrode using a voltage threshold of ±100 µV via BinViewer software (SCREEN Holdings Co., Ltd, Japan). The resulting spike data were then processed using a custom MATLAB (MathWorks, Natick, MA) script to perform beat detection. Firing count histograms were generated using a bin size of 0.5 ms, and peak detection within these histograms identified the timing and propagation duration of beats across the electrode array. For each electrode, the maximum spike amplitude and its corresponding peak timing were calculated to generate heat maps of field potential amplitude and activation timing. […]

cardiomyocytes [3] = settings: BR20 (20% reduction in beat rate), cited from earlier work
[4] = cited from earlier work
NaV = settings: cited from earlier work
CaV = settings: cited from earlier work
cardiomyocytes [5] = settings: cited from earlier work
hiPSC-CMs = assay: Conventional MEA recording (16-electrode Axion Maestro), acute exposure; assay type: cell-based, human
Method: To enable comparison with the UHD-CMOS-MEA recordings, conventional extracellular field potential recordings were performed using 16-electrode MEA plates on a commercially available MEA system (Axion Maestro, Axion Biosystems), in accordance with the general principles of the CiPA initiative. hiPSC-CMs were cultured and maintained on the MEA plates under spontaneous beating conditions at 37 °C. Recordings were conducted after 10 to 14 DIV, and data acquisition and beat detection were performed using the built-in algorithms of the AxIS software (Axion Biosystems), without the use of external pacing. […] Each compound was applied under acute exposure conditions, and field potential recordings were obtained for 30 min following drug administration.
To evaluate the measurement capabilities of a conventional MEA system, the same set of 7 compounds was tested using the 16-electrode Axion Maestro platform.

cardiomyocytes [6] = settings: CTD90 ↑; ref Lu et al. 2019; cited from earlier work
hERG = settings: read-out: IC50 hERG; ref Clements et al. 2015; cited from earlier work
[7] = acute, statistically significant change vs before

SMILES: CC1(C)S[C@@H]2[C@H](NC(=O)[C@H](N)c3ccc(O)cc3)C(=O)N2[C@H]1C(=O)O [Amoxicillin]
- position in PCA space [1]: remained near the origin
- significant changes in any of the measured parameters (17 beat parameters) ([2]; acute): did not induce significant changes

SMILES: CC(=O)Oc1ccccc1C(=O)O [Aspirin]
- position in PCA space [1]: remained near the origin
- significant changes in any of the measured parameters (17 beat parameters) ([2]; acute): did not induce significant changes

SMILES: C=C[C@H]1C[N@@]2CC[C@H]1C[C@@H]2[C@@H](O)c1ccnc2ccc(OC)cc12 [Quinidine]
- Impedance assay (cardiomyocytes [3]; ref Guo et al. 2013): 10 ([Guo et al. 2013]) (BR20) µM
- Cmax Free ([4]; ref Blinova et al. 2018): 3 ([Blinova et al. 2018]) μM
- MEA assay (cardiomyocytes [5]; FPD, ref Harris et al. 2013): 0.3 ([Harris et al. 2013]) (FPD) µM
- IBI (hiPSC-CMs; acute): prolonged
- beat frequency (hiPSC-CMs; acute): reduced
- conduction velocity (hiPSC-CMs; acute): decreased
- field potential (spike) amplitude (hiPSC-CMs; acute): decreased
- propagation area (hiPSC-CMs; acute): decreased
- position on the PCA plot relative to mechanism-of-action groups ([1]; 10 μM): plotted near compounds acting on hERG channels
- Amp. (amplitude) [2, 7]: decreased and ↓
- Area (propagation area) [2, 7]: decreased and ↓
- Area CV [2, 7]: increasing and ↑
- IBI (interbeat interval) [2, 7]: increasing and ↑
- BR (beat rate) [2, 7]: decreased and ↓

SMILES: COc1ccc(CCN(C)CCCC(C#N)(c2ccc(OC)c(OC)c2)C(C)C)cc1OC (stereo not drawn) [Verapamil]
- IBI (hiPSC-CMs; acute): shortened
- beat frequency (hiPSC-CMs; acute): increased
- field potential (spike) amplitude (hiPSC-CMs; acute): decreasing trend
- Amp. CV [2, 7]: ↓
- Amp. STV [2, 7]: ↓
- Dist Origin [2, 7]: reduced and ↓
- Dist Origin STV [2, 7]: ↓
- IBI (interbeat interval) [2, 7]: reduced and ↓
- No. of Origin [2, 7]: ↓
- BR (beat rate) [2, 7]: increased and ↑
- FPI (concentration at which changes were detected) [2]: 0.003 (IBI, Amp. STV, Dist Origins, Dist Origins STV) μM

Second part, led by results:

- IBI (hiPSC-CMs; acute): statistically significant changes
- Amp. CV [2, 7]: decreased and ↓
- IBI (interbeat interval) [2, 7]: ↓
- IBI CV [2, 7]: decreased and ↓
- Veloc. CV [2, 7]: decreased and ↓
- Veloc. STV [2, 7]: ↓
SMILES: CC(C)COCC(CN(Cc1ccccc1)c1ccccc1)N1CCCC1 (stereo not drawn) [Bepridil]
- Impedance assay (cardiomyocytes [3]; ref Guo et al. 2013): 0.03 ([Guo et al. 2013]) (BR20) µM
- Cmax Free ([4]; ref Crumb et al. 2016): 0.032 ([Crumb et al. 2016]) μM
- IC50 (NaV; ref Clements et al. 2015): 2.3 µM
- IC50 (CaV; ref Clements et al. 2015): 1 µM
- MEA assay (cardiomyocytes [5]; FPD, ref Kaneko et al. 2014): 10 ([Kaneko et al. 2014]) (FPD) µM
- IBI variability, amplitude variability, conduction velocity variability and STV of conduction (hiPSC-CMs; acute): not detected
- magnitude of change in beat frequency and IBI (hiPSC-CMs; acute): less than 5%
- HCA assay (cardiomyocytes [6]): 1.0 ([Lu et al. 2019]) (CTD90 ↑) µM

- IBI (hiPSC-CMs; acute): shortened
- beat frequency (hiPSC-CMs; acute): increased
- field potential (spike) amplitude (hiPSC-CMs; acute): significant reduction
- IBI (interbeat interval) [2, 7]: reduced and ↓
- BR (beat rate) [2, 7]: increased and ↑
SMILES: COc1ccc([C@@H]2Sc3ccccc3N(CCN(C)C)C(=O)[C@@H]2OC(C)=O)cc1 [Diltiazem]

- Amp. (amplitude) [2, 7]: ↓
- Area (propagation area) [2, 7]: ↓
- IBI (interbeat interval) [2, 7]: prolonged and ↑
- BR (beat rate) [2, 7]: ↓
- FPI (concentration at which changes were detected) [2]: 1 (BR) μM
SMILES: CC(C)N(CCC(C(N)=O)(c1ccccc1)c1ccccn1)C(C)C (stereo not drawn) [Disopyramide]
- Cmax Free ([4]; ref Liu et al. 2021): 0.7 ([Liu et al. 2021]) μM
- IC50 (NaV; ref Kramer et al. 2013): 168 µM
- IC50 (CaV; ref Kramer et al. 2013): 1040 µM
- MEA assay (cardiomyocytes [5]; FPDc10 (10% prolongation of FPDc), ref Ando et al. 2017): 0.74 ([Ando et al. 2017]) (FPDc10) µM
- HCA assay (cardiomyocytes [6]): 10 ([Lu et al. 2019]) (CTD90 ↑) µM
- FPI PCA (concentration at which changes were detected) [1]: 1 µM
- Veloc. (conduction velocity) [2, 7]: ↓

- average number of excitation origins per beat ([2]; 10 nM, n = 6 wells): 1.51 ± 0.02
- total number of active electrodes ([2]; 30 nM, Before: 149,149.4 ± 3,090.5): 149,185.2 ± 2,882.6
- beating frequency ([2]; 30 nM, before 35.5 bpm): 57.0 bpm
- average number of excitation origins per beat ([2]; 30 nM, n = 6 wells): 1.61 ± 0.02
- Area STV [2, 7]: decreased and ↓
- IBI (interbeat interval) [2, 7]: ↓
- BR (beat rate) [2, 7]: increased and ↑
- FPI (concentration at which changes were detected) [2]: 0.01 (BR, IBI) μM
SMILES: CC(C)NCC(O)c1ccc(O)c(O)c1 (stereo not drawn) [Isoproterenol]
- Impedance assay (cardiomyocytes [3]; ref Doherty et al. 2015): 0.01 ([Doherty et al. 2015]) (BR20) µM
- FPI PCA (concentration at which changes were detected) [1]: 0.01 µM

- spontaneous beating (hiPSC-CMs; 10 μM): ceased entirely
- IBI (hiPSC-CMs; acute): reached statistical significance
- beat frequency (hiPSC-CMs; acute): reached statistical significance
- field potential (spike) amplitude (hiPSC-CMs; acute): increase
- propagation area (hiPSC-CMs; acute): not captured
- beating frequency ([2]; 10 µM, before 64.5 bpm): 31.5 bpm
- number of active electrodes ([2]; 10 µM, before 115,437.9 ± 582.1): 93,595.6 ± 11,323.1
- Amp. (amplitude) [2, 7]: decreased and ↓
- Amp. CV [2, 7]: increased and ↑
- Area (propagation area) [2, 7]: decreased and ↓
- IBI (interbeat interval) [2, 7]: increase and ↑
- BR (beat rate) [2, 7]: decreased and ↓
- FPI (concentration at which changes were detected) [2]: 10 (BR, IBI, Ampl. Area, Veloc.) μM
SMILES: Cc1cccc(C)c1OCC(C)N (stereo not drawn) [Mexiletine]
- Impedance assay (cardiomyocytes [3]; ref Guo et al. 2013): 3.0 ([Guo et al. 2013]) (BR20) µM
- Cmax Free ([4]; ref Crumb et al. 2016): 2.5 ([Crumb et al. 2016]) μM
- IC50 (hERG): 62.2 µM
- IC50 (NaV; ref Clements et al. 2015): 38 µM
- IC50 (CaV; ref Clements et al. 2015): 125 µM
- MEA assay (cardiomyocytes [5]; Spike amp., ref Clements and Thomas 2014): 3.0 ([Clements and Thomas 2014]) (Spike amp.) µM
- conduction velocity (hiPSC-CMs; acute): not captured
- magnitude of change in beat frequency and IBI (hiPSC-CMs; acute): 2.2%
- FPI PCA (concentration at which changes were detected) [1]: 1 µM
- beat-wise variability in conduction speed ([2]; 10 µM, post-treatment): increased variability
- average conduction velocity ([2]; 10 µM, before 0.147 ± 0.004, n = 6 wells): 0.109 ± 0.009 m/s
- proportion of the area with conduction velocity exceeding 0.3 m/s ([2]; 10 µM, before 4.9%): 0.6%
- Veloc. (conduction velocity) [2, 7]: decreased and ↓
